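Method: 48-hour compound exposure of cells in 96-well plates, five concentrations, linear interpolation of endpoints. The concentration for 50% growth inhibition is given as GI50. TGI denotes the concentration required for complete inhibition of growth.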
Columns and labels:
Assay in all cases: growth of human tumour cells (NCI), 48 h
UO-31 renal = test system: UO-31 renal
786-0 renal = test system: 786-0 renal
NCI-H226 lung = test system: NCI-H226 lung
ACHN renal = test system: ACHN renal
OVCAR-5 ovarian = test system: OVCAR-5 ovarian
TK-10 renal = test system: TK-10 renal
A498 renal = test system: A498 renal
HL-60(TB) leukemia = test system: HL-60(TB) leukemia
HT29 colon = test system: HT29 colon
SNB-75 CNS = test system: SNB-75 CNS
PC-3 prostate = test system: PC-3 prostate
T-47D breast = test system: T-47D breast
IGROV1 ovarian = test system: IGROV1 ovarian
HCT-116 colon = test system: HCT-116 colon
BT-549 breast = test system: BT-549 breast
NCI-H460 lung = test system: NCI-H460 lung
K-562 leukemia = test system: K-562 leukemia
OVCAR-3 ovarian = test system: OVCAR-3 ovarian
NCI-H23 lung = test system: NCI-H23 lung
SF-268 CNS = test system: SF-268 CNS
OVCAR-8 ovarian = test system: OVCAR-8 ovarian
LOX IMVI melanoma = test system: LOX IMVI melanoma
SK-MEL-5 melanoma = test system: SK-MEL-5 melanoma
HCC-2998 colon = test system: HCC-2998 colon
M14 melanoma = test system: M14 melanoma
SF-295 CNS = test system: SF-295 CNS
SK-OV-3 ovarian = test system: SK-OV-3 ovarian
COLO 205 colon = test system: COLO 205 colon
U251 CNS = test system: U251 CNS
SF-539 CNS = test system: SF-539 CNS
HOP-92 NSCLC = test system: HOP-92 NSCLC
MOLT-4 leukemia = test system: MOLT-4 leukemia
SN12C renal = test system: SN12C renal
MALME-3M melanoma = test system: MALME-3M melanoma
RXF 393 renal = test system: RXF 393 renal
CAKI-1 renal = test system: CAKI-1 renal
SK-MEL-2 melanoma = test system: SK-MEL-2 melanoma
SW-620 colon = test system: SW-620 colon
MDA-MB-231 breast = test system: MDA-MB-231 breast
HS 578T breast = test system: HS 578T breast
SK-MEL-28 melanoma = test system: SK-MEL-28 melanoma
HCT-15 colon = test system: HCT-15 colon
SR leukemia = test system: SR leukemia
UACC-62 melanoma = test system: UACC-62 melanoma
DU-145 prostate = test system: DU-145 prostate
OVCAR-4 ovarian = test system: OVCAR-4 ovarian
RPMI-8226 leukemia = test system: RPMI-8226 leukemia
HOP-62 NSCLC = test system: HOP-62 NSCLC
SNB-19 CNS = test system: SNB-19 CNS
MDA-MB-435 = test system: MDA-MB-435
NCI/ADR-RES ovarian = test system: NCI/ADR-RES ovarian
KM12 colon = test system: KM12 colon
MCF7 breast = test system: MCF7 breast

Q: `Oc1ccccc1CNCC12CC3CC(CC(C3)C1)C2` was tested. Which GI50 (UO-31 renal) did it give?
A: 20.3 µM

Q: What about the TGI (UO-31 renal) of the same molecule?
A: > 100 µM

Q: And the GI50 (786-0 renal)?
A: 16.2 µM

Q: And the TGI (786-0 renal)?
A: 33.5 µM

Q: What about the GI50 (NCI-H226 lung) of the same molecule?
A: 68.5 µM

Q: What about the TGI (NCI-H226 lung) of the same molecule?
A: > 100 µM

Q: And the GI50 (ACHN renal)?
A: 39.6 µM

Q: What about the TGI (ACHN renal) of the same molecule?
A: > 100 µM

Q: What about the GI50 (OVCAR-5 ovarian) of the same molecule?
A: 33 µM

Q: And the TGI (OVCAR-5 ovarian)?
A: > 100 µM

Q: What about the GI50 (TK-10 renal) of the same molecule?
A: 31.2 µM

Q: And the TGI (TK-10 renal)?
A: > 100 µM

Q: And the GI50 (A498 renal)?
A: 10.4 µM

Q: And the TGI (A498 renal)?
A: 31.5 µM

Q: What about the GI50 (HL-60(TB) leukemia) of the same molecule?
A: 22 µM

Q: And the TGI (HL-60(TB) leukemia)?
A: 53.3 µM

Q: What about the GI50 (HT29 colon) of the same molecule?
A: 15.2 µM

Q: What about the TGI (HT29 colon) of the same molecule?
A: 47.7 µM

Q: And the GI50 (SNB-75 CNS)?
A: 34.9 µM

Q: What about the TGI (SNB-75 CNS) of the same molecule?
A: > 100 µM

Q: What about the GI50 (PC-3 prostate) of the same molecule?
A: 26 µM

Q: And the TGI (PC-3 prostate)?
A: > 100 µM

Q: What about the GI50 (T-47D breast) of the same molecule?
A: 20.1 µM

Q: And the TGI (T-47D breast)?
A: 44.6 µM

Q: And the GI50 (IGROV1 ovarian)?
A: 41.8 µM

Q: What about the TGI (IGROV1 ovarian) of the same molecule?
A: > 100 µM

Q: What about the GI50 (HCT-116 colon) of the same molecule?
A: 22 µM

Q: What about the TGI (HCT-116 colon) of the same molecule?
A: > 100 µM

Q: And the GI50 (BT-549 breast)?
A: 14 µM

Q: And the TGI (BT-549 breast)?
A: 74.8 µM

Q: And the GI50 (NCI-H460 lung)?
A: 23.3 µM

Q: What about the TGI (NCI-H460 lung) of the same molecule?
A: 57.7 µM

Q: What about the GI50 (K-562 leukemia) of the same molecule?
A: 5.39 µM

Q: And the TGI (K-562 leukemia)?
A: > 100 µM

Q: And the GI50 (OVCAR-3 ovarian)?
A: 57.5 µM

Q: What about the TGI (OVCAR-3 ovarian) of the same molecule?
A: > 100 µM

Q: And the GI50 (NCI-H23 lung)?
A: 32.4 µM

Q: What about the TGI (NCI-H23 lung) of the same molecule?
A: > 100 µM

Q: And the GI50 (SF-268 CNS)?
A: 46.8 µM

Q: And the TGI (SF-268 CNS)?
A: > 100 µM

Q: And the GI50 (OVCAR-8 ovarian)?
A: 79.9 µM

Q: What about the TGI (OVCAR-8 ovarian) of the same molecule?
A: > 100 µM

Q: What about the GI50 (LOX IMVI melanoma) of the same molecule?
A: 20.6 µM

Q: And the TGI (LOX IMVI melanoma)?
A: 76 µM

Q: What about the GI50 (SK-MEL-5 melanoma) of the same molecule?
A: 13.5 µM

Q: And the TGI (SK-MEL-5 melanoma)?
A: 26.9 µM

Q: What about the GI50 (HCC-2998 colon) of the same molecule?
A: 12.2 µM

Q: And the TGI (HCC-2998 colon)?
A: 26.9 µM

Q: What about the GI50 (M14 melanoma) of the same molecule?
A: 15.7 µM

Q: And the TGI (M14 melanoma)?
A: 38.3 µM

Q: And the GI50 (SF-295 CNS)?
A: 19.3 µM

Q: And the TGI (SF-295 CNS)?
A: 42.2 µM

Q: What about the GI50 (SK-OV-3 ovarian) of the same molecule?
A: 35.8 µM

Q: And the TGI (SK-OV-3 ovarian)?
A: > 100 µM

Q: And the GI50 (COLO 205 colon)?
A: 15.6 µM

Q: And the TGI (COLO 205 colon)?
A: 31 µM

Q: And the GI50 (U251 CNS)?
A: 20.7 µM

Q: And the TGI (U251 CNS)?
A: 49.3 µM

Q: What about the GI50 (SF-539 CNS) of the same molecule?
A: 33.3 µM

Q: What about the TGI (SF-539 CNS) of the same molecule?
A: > 100 µM

Q: What about the GI50 (HOP-92 NSCLC) of the same molecule?
A: 9.64 µM

Q: And the TGI (HOP-92 NSCLC)?
A: 37.9 µM

Q: What about the GI50 (MOLT-4 leukemia) of the same molecule?
A: 24.5 µM

Q: And the TGI (MOLT-4 leukemia)?
A: 70.2 µM

Q: What about the GI50 (SN12C renal) of the same molecule?
A: 32.6 µM

Q: What about the TGI (SN12C renal) of the same molecule?
A: > 100 µM

Q: And the GI50 (MALME-3M melanoma)?
A: 21.2 µM

Q: And the TGI (MALME-3M melanoma)?
A: 48.8 µM

Q: What about the GI50 (RXF 393 renal) of the same molecule?
A: 16.7 µM

Q: And the TGI (RXF 393 renal)?
A: 40.3 µM

Q: And the GI50 (CAKI-1 renal)?
A: 37 µM

Q: And the TGI (CAKI-1 renal)?
A: > 100 µM

Q: And the GI50 (SK-MEL-2 melanoma)?
A: 20.2 µM

Q: What about the TGI (SK-MEL-2 melanoma) of the same molecule?
A: 41.2 µM

Q: And the GI50 (SW-620 colon)?
A: 24.3 µM

Q: What about the TGI (SW-620 colon) of the same molecule?
A: 84.8 µM

Q: What about the GI50 (MDA-MB-231 breast) of the same molecule?
A: 27.7 µM

Q: What about the TGI (MDA-MB-231 breast) of the same molecule?
A: > 100 µM

Q: What about the GI50 (HS 578T breast) of the same molecule?
A: 19.4 µM

Q: And the TGI (HS 578T breast)?
A: 74.4 µM

Q: What about the GI50 (SK-MEL-28 melanoma) of the same molecule?
A: 23.6 µM

Q: And the TGI (SK-MEL-28 melanoma)?
A: 52.7 µM

Q: And the GI50 (HCT-15 colon)?
A: 24.8 µM

Q: And the TGI (HCT-15 colon)?
A: 91.1 µM

Q: What about the GI50 (SR leukemia) of the same molecule?
A: 20.4 µM

Q: What about the TGI (SR leukemia) of the same molecule?
A: 58.6 µM

Q: And the GI50 (UACC-62 melanoma)?
A: 17.8 µM

Q: What about the TGI (UACC-62 melanoma) of the same molecule?
A: 38.7 µM

Q: And the GI50 (DU-145 prostate)?
A: 48.9 µM

Q: What about the TGI (DU-145 prostate) of the same molecule?
A: > 100 µM

Q: What about the GI50 (OVCAR-4 ovarian) of the same molecule?
A: 48.8 µM

Q: What about the TGI (OVCAR-4 ovarian) of the same molecule?
A: > 100 µM

Q: What about the GI50 (RPMI-8226 leukemia) of the same molecule?
A: 18.1 µM

Q: What about the TGI (RPMI-8226 leukemia) of the same molecule?
A: 45 µM

Q: What about the GI50 (HOP-62 NSCLC) of the same molecule?
A: 28.8 µM

Q: And the TGI (HOP-62 NSCLC)?
A: 84 µM

Q: What about the GI50 (SNB-19 CNS) of the same molecule?
A: 60.3 µM

Q: And the TGI (SNB-19 CNS)?
A: > 100 µM

Q: And the GI50 (MDA-MB-435)?
A: 18.6 µM

Q: What about the TGI (MDA-MB-435) of the same molecule?
A: 43.7 µM

Q: What about the GI50 (NCI/ADR-RES ovarian) of the same molecule?
A: 40.4 µM

Q: What about the TGI (NCI/ADR-RES ovarian) of the same molecule?
A: > 100 µM

Q: What about the GI50 (KM12 colon) of the same molecule?
A: 23.7 µM

Q: What about the TGI (KM12 colon) of the same molecule?
A: 66 µM

Q: What about the GI50 (MCF7 breast) of the same molecule?
A: 16.8 µM

Q: And the TGI (MCF7 breast)?
A: 34.7 µM

Source: PubChem BioAssay (NCI)
